Test results from PubChem BioAssay (NCI).
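How tested: cells in 96-well plates exposed to compound for 48 hours at five concentrations. At the GI50, growth is halved. TGI: total growth inhibition.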

What was measured:
Assay in all cases: NCI tumour cell line growth inhibition, 48 h
DLD-1 colon = tested on: DLD-1 colon
DMS 273 small cell lung = tested on: DMS 273 small cell lung
HOP-18 NSCLC = tested on: HOP-18 NSCLC
HOP-62 NSCLC = tested on: HOP-62 NSCLC
MALME-3M melanoma = tested on: MALME-3M melanoma
MCF7 breast = tested on: MCF7 breast
OVCAR-4 ovarian = tested on: OVCAR-4 ovarian
OVCAR-8 ovarian = tested on: OVCAR-8 ovarian
SNB-78 CNS = tested on: SNB-78 CNS
UO-31 renal = tested on: UO-31 renal
HS 578T breast = tested on: HS 578T breast
T-47D breast = tested on: T-47D breast

| SMILES | TGI (DLD-1 colon) | TGI (DMS 273 small cell lung) | TGI (HOP-18 NSCLC) | TGI (HOP-62 NSCLC) | TGI (MALME-3M melanoma) | TGI (MCF7 breast) | TGI (OVCAR-4 ovarian) | TGI (OVCAR-8 ovarian) | TGI (SNB-78 CNS) | TGI (UO-31 renal) | TGI (HS 578T breast) | TGI (T-47D breast) | GI50 (HOP-62 NSCLC) | GI50 (HS 578T breast) | GI50 (MALME-3M melanoma) | GI50 (MCF7 breast) | GI50 (OVCAR-4 ovarian) | GI50 (OVCAR-8 ovarian) | GI50 (T-47D breast) | GI50 (UO-31 renal) |
| --- | --- | --- | --- | --- | --- | --- | --- | --- | --- | --- | --- | --- | --- | --- | --- | --- | --- | --- | --- | --- |
| O=[N+]([O-])c1ccc(Nc2cccc3c2[nH]c2c(-c4ccccc4)nccc23)c([N+](=O)[O-])c1 | > 100 µM | > 100 µM | > 100 µM | > 100 µM | > 100 µM | > 100 µM | > 100 µM | > 100 µM | > 100 µM | > 100 µM | – | – | – | – | – | – | – | – | – | – |
| COc1ccc(C2=NN(c3nsc4ccccc34)C(=O)CC2)cc1 | – | > 100 µM | > 100 µM | > 100 µM | – | – | > 100 µM | > 100 µM | > 100 µM | > 100 µM | – | – | – | – | – | – | – | – | – | – |
| CC1=C(C(=O)NCc2ccccc2)C(c2ccco2)C(C(=O)NCc2ccccc2)=C(C)N1 | > 100 µM | > 100 µM | > 100 µM | > 100 µM | > 100 µM | – | > 100 µM | > 100 µM | > 100 µM | > 100 µM | – | – | – | – | – | – | – | – | – | – |
| O=C(CN1CCN(c2ccccn2)CC1)N1CCCn2c1nc1ccccc1c2=O | – | – | – | > 100 µM | > 100 µM | > 100 µM | > 100 µM | > 100 µM | – | > 100 µM | > 100 µM | > 100 µM | – | – | – | – | – | – | – | – |
| O=S(=O)(O)c1cc(N=[N+]([O-])c2ccc(N=Nc3ccccc3)cc2S(=O)(=O)O)ccc1/C=C/c1ccc(N=[N+]([O-])c2ccc(N=Nc3ccccc3)cc2S(=O)(=O)O)cc1S(=O)(=O)O | > 100 µM | > 100 µM | > 100 µM | > 100 µM | > 100 µM | > 100 µM | > 100 µM | > 100 µM | > 100 µM | > 100 µM | – | – | – | – | – | – | – | – | – | – |
| COc1ccc(S(=O)(=O)Nc2cc(Sc3cccc4cccnc34)c(O)c3ccccc23)cc1 | – | – | – | 21.7 µM | 11.5 µM | 2.77 µM | 1.93 µM | 18.8 µM | – | 8.61 µM | 28.9 µM | 5.64 µM | 1.71 µM | 3.09 µM | 2.88 µM | 0.42 µM | 0.609 µM | 0.595 µM | 1.73 µM | 0.926 µM |
| C=C1CC(O)C2C(=C)C(=O)OC2C2C(C)C(=O)CC12 (stereo not drawn) | – | – | – | 42.7 µM | 31.5 µM | 26.2 µM | 37.8 µM | 50.9 µM | – | 28 µM | 63.2 µM | 73 µM | – | – | – | – | – | – | – | – |
| CC(C)(CO)CNc1cc(Cl)nc(N)n1 | – | – | – | > 100 µM | > 100 µM | > 100 µM | > 100 µM | > 100 µM | – | > 100 µM | > 100 µM | > 100 µM | – | – | – | – | – | – | – | – |
| Fc1ccc2c(c1)nc1n2C(c2c(F)cccc2F)SC1 (stereo not drawn) | – | – | – | > 100 µM | > 100 µM | > 100 µM | > 100 µM | > 100 µM | – | > 100 µM | > 100 µM | > 100 µM | – | – | – | – | – | – | – | – |
| CSc1nc(-c2ccccc2)nc(=[N+]2CCOCC2)s1 | > 100 µM | > 100 µM | > 100 µM | > 100 µM | > 100 µM | – | > 100 µM | > 100 µM | > 100 µM | > 100 µM | – | – | – | – | – | – | – | – | – | – |
| CC(C)(C)CC(C)(C)NCC(O)COc1ccc(C(C)(C)c2ccc(OCC(O)CNC(C)(C)CC(C)(C)C)cc2)cc1 (stereo not drawn) | 2.06 µM | 2.28 µM | – | 3.19 µM | 2.96 µM | – | 3.23 µM | 3.25 µM | 3.63 µM | 2.98 µM | – | 3.48 µM | – | – | – | – | – | – | 1.66 µM | – |
| CC(C)=CCC[C@@H](C)C1=C(O)C(Nc2ccccc2)=C(C)C(=O)C1=O | – | – | – | > 55.2 µM | > 75 µM | > 86 µM | > 100 µM | > 100 µM | – | 46.4 µM | > 100 µM | 59.7 µM | – | – | – | – | – | – | – | – |
| CCOC(=O)Cc1cc(=O)[nH]c(-n2[nH]c(C)c(CCO)c2=O)n1 | – | – | – | > 100 µM | > 100 µM | > 100 µM | > 100 µM | > 100 µM | – | > 100 µM | > 100 µM | > 100 µM | – | – | – | – | – | – | – | – |
| C=C(Cl)CN1c2ccccc2C=Cc2ccccc21 | – | – | – | 89.9 µM | 77.9 µM | 50.4 µM | 97.9 µM | > 100 µM | – | 82 µM | > 100 µM | 65.2 µM | – | – | – | – | – | – | – | – |
| Cc1ccc(S(=O)(=O)N/N=C\c2c3ccccc3[n+](C)c3ccccc23)cc1 | > 100 µM | 64.7 µM | – | > 100 µM | 95.3 µM | – | > 100 µM | > 100 µM | > 100 µM | 88.9 µM | – | – | – | – | – | – | – | – | – | – |
| Clc1ncnc2c1nc(C#Cc1ccccc1)n2C1CCCCO1 (stereo not drawn) | – | – | – | 6.38 µM | 3.91 µM | 3.22 µM | 3.75 µM | 12.4 µM | – | 3.38 µM | 42.6 µM | 4.55 µM | – | – | – | – | – | – | – | – |
| Nc1ccc(C(=O)O)cc1 | – | – | – | > 100 µM | > 100 µM | > 100 µM | > 100 µM | > 100 µM | – | > 100 µM | > 100 µM | > 100 µM | – | – | – | – | – | – | – | – |
| O=C1Nc2ccccc2SC1=C(C(=O)c1ccccc1)C(=O)c1ccccc1 | – | – | – | > 100 µM | > 100 µM | > 100 µM | > 100 µM | > 100 µM | – | > 100 µM | > 100 µM | > 100 µM | – | – | – | – | – | – | – | – |
| CSc1c(C)n([O-])c2cc(Cl)c(Cl)cc2[n+]1=O | – | – | – | > 100 µM | 33 µM | 45 µM | 30.6 µM | 32.3 µM | – | 30.4 µM | > 68.5 µM | 50 µM | – | – | – | – | – | – | – | – |
| CN1C/C(=C\c2cccs2)C(=O)/C(=C/c2cccs2)C1 | – | – | – | > 100 µM | > 100 µM | > 100 µM | 55.4 µM | 74 µM | – | 45 µM | > 100 µM | 92.6 µM | – | – | – | – | – | – | – | – |
| COc1ccc(/C=C(/c2ccc(OC)cc2)c2c(Cl)cc(Cl)c(/C(=C\c3ccc(OC)cc3)c3ccc(OC)cc3)c2N=Nc2ccccc2)cc1 | – | – | – | > 100 µM | > 100 µM | > 100 µM | > 100 µM | > 100 µM | – | > 100 µM | > 100 µM | > 100 µM | – | – | – | – | – | – | – | – |
| O=C(NNc1nc(-c2ccccc2)cs1)Nc1ccccc1 | – | – | – | 56.8 µM | > 100 µM | 62.8 µM | 88.5 µM | 46.8 µM | – | 75.2 µM | 74.3 µM | 66.8 µM | – | – | – | – | – | – | – | – |
| CCCCOc1ccc(S(=O)(=O)/N=C(\NO)Nc2ccc(Cl)cc2)cc1 | – | – | – | 32.4 µM | 32.7 µM | 28.8 µM | 23.6 µM | 36.2 µM | – | 24.6 µM | 51.3 µM | 26.2 µM | – | – | – | – | – | – | – | – |
| COc1ccc(/N=N/C(=NNC(=O)c2ccc(C)cc2)c2ccc(N(C)C)cc2)cc1 | – | – | – | > 100 µM | 94.6 µM | 56.1 µM | > 100 µM | > 100 µM | – | > 100 µM | > 100 µM | > 33.8 µM | – | – | – | – | – | – | – | – |
| Nc1ncc2c(n1)-c1ccccc1OC2 | > 100 µM | > 100 µM | > 100 µM | > 100 µM | > 100 µM | > 100 µM | > 31.6 µM | > 100 µM | > 100 µM | > 100 µM | – | – | – | – | – | – | – | – | – | – |
| NS(=O)(=O)c1ccc(NCc2nc3ccccc3[nH]2)cc1 | – | – | – | > 100 µM | > 100 µM | > 100 µM | > 100 µM | > 100 µM | – | > 100 µM | > 100 µM | > 100 µM | – | – | – | – | – | – | – | – |
| Cc1ccc(S(=O)(=O)NC(=O)NC(CC(=O)O)C(=O)O)cc1 (stereo not drawn) | – | – | – | > 100 µM | > 100 µM | > 100 µM | > 100 µM | > 100 µM | – | > 100 µM | > 100 µM | > 100 µM | – | – | – | – | – | – | – | – |
